Blank lines part the entries; values can stand above or below the compound they belong to.
Legend:
THP-1 = experiment: Antiproliferative activity against human THP1 incubated for 72 hrs by Trypan Blue reagent based assay; format: functional, cell-based; conditions: THP-1, 72 h
[1] = target: Cyclin-dependent kinase 4 (Homo sapiens, UniProt P11802); experiment: Inhibition of CDK4 (unknown origin)
Histone deacetylase 1 [2] = target: T1, Histone deacetylase 1 (Homo sapiens, UniProt Q13547); experiment: Inhibition of HDAC1 (unknown origin)
[3] = Inhibition of human SCC-25 cell metabolism incubated for 72 hrs by CCK8 assay; format: functional; conditions: SCC-25, 72 h
Histone deacetylase [4] = experiment: Inhibition of HDAC in human K562 cells using Boc-K(Ac)-AMC as substrate preincubated for 3 hrs followed by substrate addition and measured after 3 hrs by fluorescence method; format: cell-based
[5] = target: T2, Histone-lysine N-methyltransferase EHMT2 (Homo sapiens, UniProt Q96KQ7); experiment: Inhibition of G9a in human MDA-MB-231 cells assessed as effect on H3K9Me2 levels incubated for 48 hrs by immunofluorescence in-cell western assay; format: cell-based
T2 sequence (Q96KQ7 whole entry): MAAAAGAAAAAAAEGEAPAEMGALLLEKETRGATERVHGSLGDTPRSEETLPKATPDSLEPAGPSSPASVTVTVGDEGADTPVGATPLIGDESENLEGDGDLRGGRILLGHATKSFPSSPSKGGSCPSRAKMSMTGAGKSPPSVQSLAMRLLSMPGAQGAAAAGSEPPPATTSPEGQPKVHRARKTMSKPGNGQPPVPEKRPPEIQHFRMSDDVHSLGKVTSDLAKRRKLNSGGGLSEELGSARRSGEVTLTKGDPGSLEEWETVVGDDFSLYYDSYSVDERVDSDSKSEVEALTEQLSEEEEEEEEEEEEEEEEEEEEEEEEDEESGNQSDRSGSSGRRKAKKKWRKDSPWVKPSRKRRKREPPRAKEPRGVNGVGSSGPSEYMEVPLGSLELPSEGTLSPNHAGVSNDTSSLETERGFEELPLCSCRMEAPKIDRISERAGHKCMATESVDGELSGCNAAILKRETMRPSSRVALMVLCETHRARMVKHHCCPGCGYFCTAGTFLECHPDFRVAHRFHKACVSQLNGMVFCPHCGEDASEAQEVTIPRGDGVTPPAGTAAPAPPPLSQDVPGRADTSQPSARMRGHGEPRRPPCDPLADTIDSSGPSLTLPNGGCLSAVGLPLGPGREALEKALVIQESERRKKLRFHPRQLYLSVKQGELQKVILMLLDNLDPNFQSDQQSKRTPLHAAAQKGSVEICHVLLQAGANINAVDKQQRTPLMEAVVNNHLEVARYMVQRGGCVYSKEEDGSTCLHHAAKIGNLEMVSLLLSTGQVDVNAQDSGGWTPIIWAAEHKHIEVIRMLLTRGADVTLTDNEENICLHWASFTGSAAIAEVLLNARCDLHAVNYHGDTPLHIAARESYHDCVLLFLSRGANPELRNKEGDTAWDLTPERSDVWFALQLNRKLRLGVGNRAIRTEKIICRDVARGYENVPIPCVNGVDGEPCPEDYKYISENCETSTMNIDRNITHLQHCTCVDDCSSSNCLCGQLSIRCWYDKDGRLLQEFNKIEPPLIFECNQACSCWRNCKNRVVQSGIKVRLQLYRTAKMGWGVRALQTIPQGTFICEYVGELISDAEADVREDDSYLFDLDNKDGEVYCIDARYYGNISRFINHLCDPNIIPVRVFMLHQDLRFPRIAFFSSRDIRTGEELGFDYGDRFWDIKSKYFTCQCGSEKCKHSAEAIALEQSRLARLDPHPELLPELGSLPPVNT

A549 [6] = experiment: Antiproliferative activity against human A549 cells incubated for 72 hrs by MTT assay; format: functional, cell-based; conditions: A549, 72 h
MDA-MB-468 = experiment: Antiproliferative activity against human MDA-MB-468 cells incubated for 72 hrs by MTT assay; format: functional, cell-based; conditions: MDA-MB-468, 72 h
KG-1 = experiment: Antiproliferative activity against human KG-1 cells incubated for 72 hrs by MTT assay; format: functional, cell-based; conditions: KG-1, 72 h
4T1 = experiment: Antiproliferative activity against mouse 4T1 cells by EdU alexa fluor high-throughput imaging method; format: functional, cell-based
[7] = target: T3, Epidermal growth factor receptor (Homo sapiens, UniProt P00533); experiment: Inhibition of EGFR (unknown origin)
[8] = target: T4, Protein deacetylase HDAC6 (Homo sapiens, UniProt Q9UBN7); experiment: Inhibition of HDAC6 (unknown origin)
T4 sequence (Q9UBN7 whole entry): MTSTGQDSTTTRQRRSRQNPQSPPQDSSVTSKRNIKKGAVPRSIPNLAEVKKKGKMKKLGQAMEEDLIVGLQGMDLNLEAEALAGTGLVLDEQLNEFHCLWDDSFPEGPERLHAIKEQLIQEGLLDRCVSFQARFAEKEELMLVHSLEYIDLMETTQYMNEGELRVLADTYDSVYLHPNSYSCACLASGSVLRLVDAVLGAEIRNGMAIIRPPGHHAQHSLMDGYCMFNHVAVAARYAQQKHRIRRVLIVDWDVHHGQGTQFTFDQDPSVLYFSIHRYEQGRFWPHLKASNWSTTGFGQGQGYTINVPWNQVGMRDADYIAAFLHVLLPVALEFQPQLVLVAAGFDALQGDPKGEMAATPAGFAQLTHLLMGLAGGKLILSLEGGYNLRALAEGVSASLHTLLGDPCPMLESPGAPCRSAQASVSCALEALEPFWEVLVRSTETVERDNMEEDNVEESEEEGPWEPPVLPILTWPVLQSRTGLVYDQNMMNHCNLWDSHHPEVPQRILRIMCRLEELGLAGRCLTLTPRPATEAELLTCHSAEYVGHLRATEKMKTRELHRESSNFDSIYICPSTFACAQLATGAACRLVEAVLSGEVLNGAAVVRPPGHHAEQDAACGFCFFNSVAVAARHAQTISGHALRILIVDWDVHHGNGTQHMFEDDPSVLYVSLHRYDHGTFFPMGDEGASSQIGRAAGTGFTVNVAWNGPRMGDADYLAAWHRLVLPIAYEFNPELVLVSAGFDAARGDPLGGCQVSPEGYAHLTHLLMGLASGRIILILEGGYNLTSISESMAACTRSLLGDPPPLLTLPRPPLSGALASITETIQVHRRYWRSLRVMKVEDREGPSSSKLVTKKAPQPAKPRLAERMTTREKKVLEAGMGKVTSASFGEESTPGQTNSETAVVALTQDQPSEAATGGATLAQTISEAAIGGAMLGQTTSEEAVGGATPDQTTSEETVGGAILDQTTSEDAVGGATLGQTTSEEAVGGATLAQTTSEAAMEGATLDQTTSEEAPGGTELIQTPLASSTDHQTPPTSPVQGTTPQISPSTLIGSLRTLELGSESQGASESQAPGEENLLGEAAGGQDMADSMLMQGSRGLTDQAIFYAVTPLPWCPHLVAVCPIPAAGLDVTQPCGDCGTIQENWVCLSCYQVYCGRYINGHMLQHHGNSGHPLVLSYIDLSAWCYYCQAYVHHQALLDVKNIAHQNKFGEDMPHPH

A549 [9] = experiment: Antiproliferative activity against human A549 cells; format: functional, cell-based
[10] = target: Class 1 histone deacetylase (Homo sapiens, UniProt Q13547+O15379+Q92769+Q9BY41); experiment: Inhibition of HDAC class1 (unknown origin); format: protein assay
Histone deacetylase [11] = experiment: Inhibition of HDAC in human HeLa cell nuclear extracts using Boc-Lys (acetyl)-AMC as substrate preincubated for 5 mins followed by substrate addition and measured after 30 mins by fluorescence based assay
[12] = target: T3, Epidermal growth factor receptor; experiment: Inhibition of EGFR (unknown origin) incubated for 40 mins by kinase-glo plus luminescence assay
U-251 = experiment: Antiproliferative activity against human U251 cells assessed as reduction in cell viability incubated for 72 hrs by MTT assay; format: functional, cell-based; conditions: U-251, 72 h
U-87 MG = experiment: Antiproliferative activity against human U87 cells assessed as reduction in cell viability incubated for 72 hrs by MTT assay; format: functional, cell-based, U-87MG ATCC
T98G = experiment: Antiproliferative activity against human T98G cells assessed as reduction in cell viability incubated for 72 hrs by MTT assay; format: functional, cell-based
[13] = target: DNA (cytosine-5)-methyltransferase 3A (Homo sapiens, UniProt Q9Y6K1); experiment: Inhibition of DNMT3A (unknown origin) using biotinylated DNA oligonucleotides as substrate in presence of [3H-SAM] preincubated for 15 mins followed by substrate and [3H-SAM] addition and measured after 4 hrs by liquid scintillation counting method
[14] = target: DNA (cytosine-5)-methyltransferase 1 (Homo sapiens, UniProt P26358); experiment: Inhibition of DNMT1 (unknown origin) using poly(dI-dC)-poly(dI-dC as substrate in presence of [3H-SAM] preincubated for 15 mins followed by substrate and [3H-SAM] addition and measured after 120 mins by liquid scintillation counting method
Histone deacetylase 1 [15] = target: T1, Histone deacetylase 1; experiment: Inhibition of HDAC1 (unknown origin) using Ac-peptide as substrate in preincubated for 15 mins followed by substrate addition and measured after 60 mins by fluorescence method
Histone deacetylase 1 [16] = target: T1, Histone deacetylase 1; experiment: Inhibition of human HDAC1 expressed in baculovirus expression system by fluorescence method
CAPAN-1 = experiment: Antiproliferative activity against human CAPAN 1 cells incubated for 72 hrs by CCK8 assay; format: functional, cell-based; conditions: CAPAN-1, 72 h

T1 sequence (Q13547 whole entry): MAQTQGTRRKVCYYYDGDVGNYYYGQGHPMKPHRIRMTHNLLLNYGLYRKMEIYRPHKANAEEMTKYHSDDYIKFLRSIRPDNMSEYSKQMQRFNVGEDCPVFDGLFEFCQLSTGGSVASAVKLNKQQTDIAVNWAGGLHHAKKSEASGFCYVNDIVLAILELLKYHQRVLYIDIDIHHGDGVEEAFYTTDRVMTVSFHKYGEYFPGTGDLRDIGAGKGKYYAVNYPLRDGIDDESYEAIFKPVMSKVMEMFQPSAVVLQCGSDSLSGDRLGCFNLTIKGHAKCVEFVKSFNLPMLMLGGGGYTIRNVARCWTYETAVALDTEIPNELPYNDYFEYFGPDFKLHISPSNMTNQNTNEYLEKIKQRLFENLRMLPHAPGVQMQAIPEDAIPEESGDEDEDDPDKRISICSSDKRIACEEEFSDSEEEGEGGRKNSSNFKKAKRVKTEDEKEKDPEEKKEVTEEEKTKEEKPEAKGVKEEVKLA
T3 sequence (P00533 whole entry): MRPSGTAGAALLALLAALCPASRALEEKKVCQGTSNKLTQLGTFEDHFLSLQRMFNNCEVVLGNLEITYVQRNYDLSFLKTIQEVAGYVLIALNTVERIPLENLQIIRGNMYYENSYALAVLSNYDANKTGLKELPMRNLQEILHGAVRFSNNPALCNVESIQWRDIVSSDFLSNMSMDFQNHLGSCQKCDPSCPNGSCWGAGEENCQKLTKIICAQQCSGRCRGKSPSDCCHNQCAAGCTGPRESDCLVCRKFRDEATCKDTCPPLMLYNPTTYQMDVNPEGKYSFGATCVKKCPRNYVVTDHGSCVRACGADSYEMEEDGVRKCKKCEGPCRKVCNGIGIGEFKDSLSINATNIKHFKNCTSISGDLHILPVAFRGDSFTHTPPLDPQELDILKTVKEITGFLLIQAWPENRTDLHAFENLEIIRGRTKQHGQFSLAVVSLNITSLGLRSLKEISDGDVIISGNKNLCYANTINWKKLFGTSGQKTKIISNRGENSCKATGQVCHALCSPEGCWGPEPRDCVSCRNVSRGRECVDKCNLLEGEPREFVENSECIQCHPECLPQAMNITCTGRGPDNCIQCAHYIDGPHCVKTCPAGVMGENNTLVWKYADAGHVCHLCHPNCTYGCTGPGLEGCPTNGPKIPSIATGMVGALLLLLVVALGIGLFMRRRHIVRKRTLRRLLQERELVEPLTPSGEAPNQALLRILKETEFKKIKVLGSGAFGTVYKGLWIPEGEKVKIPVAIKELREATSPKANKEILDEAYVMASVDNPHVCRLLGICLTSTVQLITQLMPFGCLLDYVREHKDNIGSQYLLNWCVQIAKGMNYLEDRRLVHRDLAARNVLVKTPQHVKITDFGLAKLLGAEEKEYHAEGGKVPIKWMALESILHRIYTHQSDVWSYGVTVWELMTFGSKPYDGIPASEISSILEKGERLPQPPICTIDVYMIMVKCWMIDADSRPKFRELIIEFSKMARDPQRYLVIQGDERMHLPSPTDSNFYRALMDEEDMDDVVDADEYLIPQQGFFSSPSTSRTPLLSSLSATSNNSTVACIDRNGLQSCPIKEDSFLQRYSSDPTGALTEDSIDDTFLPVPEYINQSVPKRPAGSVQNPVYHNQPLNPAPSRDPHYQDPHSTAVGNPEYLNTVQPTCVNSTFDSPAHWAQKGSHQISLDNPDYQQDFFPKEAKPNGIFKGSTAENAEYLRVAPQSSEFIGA
Sequence of Cyclin-dependent kinase 4 (P11802 whole entry): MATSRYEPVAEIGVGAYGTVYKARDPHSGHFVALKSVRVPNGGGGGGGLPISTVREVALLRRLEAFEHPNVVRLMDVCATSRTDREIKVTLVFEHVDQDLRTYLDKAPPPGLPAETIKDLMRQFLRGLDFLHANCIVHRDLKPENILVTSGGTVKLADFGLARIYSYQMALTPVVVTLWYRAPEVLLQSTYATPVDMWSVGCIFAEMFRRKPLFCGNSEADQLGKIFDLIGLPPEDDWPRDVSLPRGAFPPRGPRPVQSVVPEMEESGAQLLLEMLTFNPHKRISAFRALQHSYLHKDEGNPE
Sequence of DNA (cytosine-5)-methyltransferase 3A (Q9Y6K1 whole entry, looked up): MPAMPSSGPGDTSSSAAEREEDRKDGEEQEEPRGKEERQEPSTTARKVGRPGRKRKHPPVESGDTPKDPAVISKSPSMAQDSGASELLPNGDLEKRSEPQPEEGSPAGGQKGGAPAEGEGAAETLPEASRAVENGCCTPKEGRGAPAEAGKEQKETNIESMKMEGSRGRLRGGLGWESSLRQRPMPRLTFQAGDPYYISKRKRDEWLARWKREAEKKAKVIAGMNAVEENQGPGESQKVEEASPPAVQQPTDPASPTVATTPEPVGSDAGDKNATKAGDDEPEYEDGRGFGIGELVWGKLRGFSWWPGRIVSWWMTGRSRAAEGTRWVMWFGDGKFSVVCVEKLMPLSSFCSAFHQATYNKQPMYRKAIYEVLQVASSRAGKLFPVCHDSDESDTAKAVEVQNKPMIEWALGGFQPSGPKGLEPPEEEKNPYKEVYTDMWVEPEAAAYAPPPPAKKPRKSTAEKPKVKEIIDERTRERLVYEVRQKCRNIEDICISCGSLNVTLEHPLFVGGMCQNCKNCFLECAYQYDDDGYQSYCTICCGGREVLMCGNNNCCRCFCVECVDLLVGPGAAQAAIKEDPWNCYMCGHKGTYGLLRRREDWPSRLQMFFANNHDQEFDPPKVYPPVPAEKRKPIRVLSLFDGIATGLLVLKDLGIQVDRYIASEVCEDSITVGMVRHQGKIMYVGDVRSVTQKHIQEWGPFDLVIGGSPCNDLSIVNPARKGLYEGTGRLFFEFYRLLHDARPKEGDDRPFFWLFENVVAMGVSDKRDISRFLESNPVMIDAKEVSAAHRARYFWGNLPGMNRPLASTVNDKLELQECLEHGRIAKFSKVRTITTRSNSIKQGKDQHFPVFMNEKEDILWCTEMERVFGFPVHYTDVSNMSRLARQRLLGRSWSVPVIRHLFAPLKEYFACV
Sequence of DNA (cytosine-5)-methyltransferase 1 (P26358 whole entry): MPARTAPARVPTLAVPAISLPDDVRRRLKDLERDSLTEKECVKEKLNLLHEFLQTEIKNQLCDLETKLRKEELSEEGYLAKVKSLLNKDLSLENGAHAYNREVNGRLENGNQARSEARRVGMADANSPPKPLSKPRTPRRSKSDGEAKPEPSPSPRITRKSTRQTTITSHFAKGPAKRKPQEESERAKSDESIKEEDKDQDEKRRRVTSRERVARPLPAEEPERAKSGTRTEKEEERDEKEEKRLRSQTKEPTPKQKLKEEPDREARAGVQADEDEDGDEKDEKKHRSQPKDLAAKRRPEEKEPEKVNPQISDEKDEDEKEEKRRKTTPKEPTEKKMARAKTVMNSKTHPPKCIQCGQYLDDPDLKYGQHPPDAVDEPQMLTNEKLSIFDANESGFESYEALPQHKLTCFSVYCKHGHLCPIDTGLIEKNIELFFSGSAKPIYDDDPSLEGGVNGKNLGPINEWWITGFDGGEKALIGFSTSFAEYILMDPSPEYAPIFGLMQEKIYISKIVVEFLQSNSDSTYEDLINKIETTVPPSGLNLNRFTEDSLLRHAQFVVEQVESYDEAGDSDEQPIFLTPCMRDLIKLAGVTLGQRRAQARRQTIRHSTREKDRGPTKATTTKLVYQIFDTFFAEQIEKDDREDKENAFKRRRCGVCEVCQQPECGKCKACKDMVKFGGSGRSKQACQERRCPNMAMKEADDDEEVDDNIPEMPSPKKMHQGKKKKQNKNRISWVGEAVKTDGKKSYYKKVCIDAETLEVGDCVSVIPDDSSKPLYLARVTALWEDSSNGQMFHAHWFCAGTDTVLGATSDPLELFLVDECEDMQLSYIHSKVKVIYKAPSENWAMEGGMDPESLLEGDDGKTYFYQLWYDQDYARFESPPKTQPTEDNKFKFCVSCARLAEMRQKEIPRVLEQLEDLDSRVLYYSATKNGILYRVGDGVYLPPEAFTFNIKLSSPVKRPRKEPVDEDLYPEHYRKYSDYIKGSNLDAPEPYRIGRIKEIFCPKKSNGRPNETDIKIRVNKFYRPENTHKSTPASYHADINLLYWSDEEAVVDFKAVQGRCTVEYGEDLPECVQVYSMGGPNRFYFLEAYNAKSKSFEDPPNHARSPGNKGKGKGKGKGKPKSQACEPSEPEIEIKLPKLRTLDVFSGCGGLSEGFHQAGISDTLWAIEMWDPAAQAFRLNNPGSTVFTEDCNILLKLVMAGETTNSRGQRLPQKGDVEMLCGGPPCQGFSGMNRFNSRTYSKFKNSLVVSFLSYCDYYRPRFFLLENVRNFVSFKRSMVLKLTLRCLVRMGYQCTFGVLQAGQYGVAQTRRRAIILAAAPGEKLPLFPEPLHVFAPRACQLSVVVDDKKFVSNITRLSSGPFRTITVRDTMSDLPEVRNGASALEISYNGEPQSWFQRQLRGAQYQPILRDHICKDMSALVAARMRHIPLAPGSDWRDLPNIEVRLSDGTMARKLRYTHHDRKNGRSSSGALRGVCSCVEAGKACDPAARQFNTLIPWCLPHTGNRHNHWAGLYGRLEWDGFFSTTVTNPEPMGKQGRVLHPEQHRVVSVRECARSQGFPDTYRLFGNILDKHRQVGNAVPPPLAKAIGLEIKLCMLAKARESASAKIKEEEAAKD

IC50 (THP-1): 15500 nM
SMILES: Cc1noc(C)c1-c1ccc2c(c1)c(Cc1ccc(F)cc1)cn2CCCCCCC(=O)NO

IC50 [1]: 1.2 nM
IC50 (Histone deacetylase 1 [2]): 17 nM
SMILES: Cc1nc2ccc(-c3nc(Nc4ccc(NC(=O)CCCCCC(=O)NO)cc4)ncc3F)cc2n1C(C)C
IC50 [3]: 126 nM

IC50 (Histone deacetylase [4]): 5700 nM
IC50 [5]: 7140 nM
SMILES: COc1ccc2c(NC3CCN(Cc4ccccc4)CC3)nc(NCCNC(=O)CCCCC(=O)NO)nc2c1

SMILES: C=CC(=O)Nc1cc(Nc2nccc(-c3cn(C)c4ccccc34)n2)c(OC)cc1N(C)CCN(C)C [OSIMERTINIB]
IC50 (A549 [6]): 1970 nM
IC50 (MDA-MB-468): 1300 nM
IC50 (KG-1): 530 nM

IC50 (4T1): 10000 nM
SMILES: CCC(CC)(c1ccc(OCC(=O)NO)cc1)c1ccc(OCC(O)C(C)(C)C)c(C)c1 (centres undefined)

IC50 (Histone deacetylase 1 [2]): 1.1 nM
IC50 [7]: 10.3 nM
IC50 [8]: 4.3 nM
IC50 (A549 [9]): 710 nM
SMILES: O=C(CCCCCCn1cc(-c2ccc3ncnc(Nc4ccc(Br)cc4F)c3c2)nn1)NO

SMILES: Cn1c(CCCCCCC(=O)NO)nc2cc(N(CCCl)CCCl)ccc21 [TINOSTAMUSTINE]
IC50 [10]: 6 nM

IC50 (Histone deacetylase [11]): 85 nM
IC50 (A549 [6]): 2190 nM
IC50 [12]: 5700 nM
IC50 (MDA-MB-468): 230 nM
SMILES: COc1cc(NC(=O)CCCCCCCCCCC(=O)NO)ccc1Nc1nccc(-c2cn(C)c3ccccc23)n1
IC50 (KG-1): 240 nM

IC50 (U-251): 7000 nM
IC50 (U-87 MG): 8000 nM
SMILES: O=C(CCCCCNC(=O)c1cc(O)c2c(c1)C(=O)c1cccc(O)c1C2=O)NO
IC50 (T98G): 5500 nM

IC50 [13]: 930 nM
IC50 [14]: 2020 nM
IC50 (Histone deacetylase 1 [15]): 4160 nM
SMILES: O=C(NO)C1CCN(CC(O)COC(Cn2c3ccccc3c3ccccc32)Cn2c3ccccc3c3ccccc32)CC1 (centres undefined)

SMILES: Cc1sc2c(c1C)C(c1ccc(Cl)cc1)=N[C@@H](CC(=O)Nc1ccc(C(=O)NO)cc1)c1nnc(C)n1-2
IC50 (Histone deacetylase 1 [16]): 21 nM
IC50 (CAPAN-1): 150 nM

IC50 (A549 [9]): 16800 nM
SMILES: C#Cc1cccc(Nc2ncnc3cc(OCCOC)c(OCCOC)cc23)c1 [ERLOTINIB]
